Measured values: patent US20260284009A1, “COMPOUNDS FOR NOS-RELATED CANCERS AND METHODS OF USE” (YISSUM RESEARCH DEVELOPMENT COMPANY OF THE HEBREW …, priority 2023, published 2026)

Assays:
SH-SY5Y cells [1] = assay: NADPH-diaphorase staining of SH-SY5Y cells; assay type: cell-based, human; conditions: 7-NI treated vs untreated group
Procedure: (§1) Human neuroblastoma (“NB”) SH-SY5Y cells were obtained from the American Type Culture Collection (ATCC) and maintained in Dulbecco's modified Eagle's medium (DMEM) and Ham's F-12 (1:1) supplemented with 10% fetal bovine serum, 2 mM L-glutamine, and 100 U/ml penicillin-G/[…] streptomycin in the humidified atmosphere (37° C., 5% CO2). Cells were plated onto 25 cm^2 and 75 cm^2 at a density of […] respectively for Western blotting (WB) and 1×10^5 for immunofluorescence. The SH-SY5Y cells were treated with 100 μM 7-nitroindazole (7-NI) for 24 hr. This concentration was confirmed in the dose-response experiment (FIG. 1) using an MTT viability assay.
NADPH diaphorase staining were done using NBT as a chromogen and […] as a reductant to detect cells with NOS activity. Cells were cultured and treated as described previously in the immunofluorescence section. Then cells were fixed with 4% PFA for 30 min at room temperature in dark. After fixation, the cells were washed 2 times with PBS and then incubated in 0.2% Triton X-100 (in phosphate buffer) for 10 min. The cells were then incubated in […] NBT-NADPH solution for 2 h at 37C. The cells were washed twice with PBS and permanently mounted with DPX. Images were analyzed with a Nikon confocal TL microscope. […]

SH-SY5Y cells [2] = assay: Nitrite (Griess) assay in SH-SY5Y cells; assay type: cell-based, human; conditions: 7-NI
Procedure: as §1
Released NO was measured with Griess assay Kit (Sigma-Aldrich, Cat. No. 23479) using the manufacturer's instructions.
SH-SY5Y cells were plated in 6 well plates, as well as on 22 mm^2 coverslips at a density of 6.0×10^4 cells/cm^2 and transfected with 20 nM nNOS siRNA (SEQ ID NO: 4) for 24 h, with the use of Lipofectamine RNAi MAX (56530, Invitrogen) according to the manufacturer's protocol. Then cells were washed with phosphate-buffered saline (PBS) and harvested for WB and fixed for immunofluorescence.

SH-SY5Y-xenografted mice = assay: Tumor volume in SH-SY5Y-xenografted mice; assay type: in vivo; conditions: 80 mg/kg 7-NI, after 1 month, vs control
Procedure: Data are presented as mean±SEM. Statistical significance was determined using a One-way ANOVA followed by Fisher's LSD multiple comparison post hoc test. **P<0.01.

SH-SY5Y cells [3] = assay: Xenograft neuroblastoma model, SH-SY5Y cells in NSG mice; assay type: in vivo; conditions: NSG male mice, 80 mg/kg 7-NI intraperitoneally three times per week, one month, vs control
Procedure: A xenograft neuroblastoma model was generated by injecting 4.0×10^6 SH-SY5Y cells (in a 50:50 mixture of PBS and matrigel basement membrane matrix) into the subcutaneous tissue in the flank of NOD SCID Gamma (NSG) male mice. Mice were 6-8 weeks old at time of injections. The mice were examined for 1 month.
Two treatment groups of mice were used (n=8), wherein one group was administered control, and the second group was administered 80 mg/kg of 7-NI administered intraperitoneally three times per week. Treatment started after five days from the injection with SH-SY5Y cells. After one month, all mice were euthanized, and tumors were harvested for ex vivo analysis and histology. Tumor volume was measured using calipers and was calculated as (length^2*width)/2

U87-MG cells [4] = assay: Western blot of U87-MG cells (3-Ntyr, CD70, iNOS, nNOS); assay type: cell-based, human; conditions: vs control and vehicle
Procedure: Human glioblastoma U87-MG cells were obtained from the American Type Culture Collection (ATCC) and maintained in Dulbecco's modified Eagle's Medium (DMEM) and Ham's F-12 (1:1) supplemented with 10% fetal bovine serum, 2 mM L-glutamine, and 100 U/ml penicillin-G/[…] streptomycin in the humidified atmosphere (37° C., 5% CO2). Cells were plated onto 25 cm^2 and 75 cm^2 at a density of […] respectively for Western blotting (WB) and 1×10^5 for immunofluorescence. The U87-MG cells were treated with 100 μM 7-nitroindazole (7-NI) for 24 hr. This concentration was confirmed in the dose-response experiment (FIG. 7) using an MTT viability assay.
Cells were lysed in ice-cold RIPA buffer containing 50 mM Tris-HCl, 1% Nonidet P-40, 0.25% sodium deoxycholate, 150 mM NaCl, protease-, and phosphatase inhibitor cocktails, pH 7.4. After sonication, the lysates were centrifuged at 17,000 g for 30 min at 4° C., and the supernatant was collected. The protein concentrations were determined with the BCA protein assay. Proteins were resolved by SDS-PAGE, transferred to a PVDF membrane, and probed with the following antibodies: anti-CD70 (rabbit, diluted 1:1000), and anti-3-Nitrotyrosine (rabbit, diluted 1:5000) from Abcam. All primary antibodies, except anti-3-Nitrotyrosine, were purchased from Cell Signaling Technology. The blots were then visualized using an enhanced chemiluminescence (ECL) system.

SH-SY5Y cells [5] = assay: Clonogenic survival of SH-SY5Y cells; assay type: cell-based, human; conditions: 100 μM 7-NI or 20 nM siRNA (SEQ ID NO: 4), n=4
Procedure: In FIGS. 3A-3B, for quantitative analysis data, all individual data series are presented as biological replicates (n=4) for all groups. Data are presented as mean±SEM. Statistical significance was determined using a One-way ANOVA followed by Fisher's LSD multiple comparison post hoc test. *P<0.05, **P<0.01, and ns=not significant.
FIG. 3A: Representative well images of clonogenic growth following administration of the control (“SH-SY5Y”), 0.1% DMSO (“SH-SY5Y+NC”), 100 μM 7-NI (“SH-SY5Y+7-NI”), or 20 nM siRNA (SEQ ID NO: 4) (“SH-SY5Y+si-nNOS”).
FIG. 3B: Quantitative analysis of clonogenic survival for the experiments of FIG. 3A.

U87-MG cells [6] = assay: Griess assay, nitrite and nitrate content; assay type: cell-based, human; conditions: L-NIL alone, compared to the control (summary statement)
Procedure: In a particular example, in vitro and in vivo experiments were performed using U87-MG cells and U87-MG-xenografted mice, respectively, as a glioblastoma model.

CD70 = CD70 expression level in U87-MG cells; assay type: cell-based, human; conditions: both the lower and higher doses, compared to the control; not statistically significant (FIG. 13)
[7] = 7-NI, not statistically significantly

| SMILES | NADPH diaphorase staining (SH-SY5Y cells [1]) | nitrite content (Griess assay) (SH-SY5Y cells [2]) | tumor volume (SH-SY5Y-xenografted mice) | average tumor size (SH-SY5Y cells [3]) | 3-Ntyr levels (U87-MG cells [4]; 100 μM 7-NI, 24 hr) | expression level of iNOS (U87-MG cells [4]; 7-NI) | expression level of CD70 (U87-MG cells [4]; [7]) | expression level of nNOS (U87-MG cells [4]; [7]) | clonogenic survival (SH-SY5Y cells [5]) | total nitrate and nitrite content (U87-MG cells [6]) | expression level of CD70 (CD70) |
| --- | --- | --- | --- | --- | --- | --- | --- | --- | --- | --- | --- |
| O=[N+]([O-])c1cccc2cn[nH]c12 [7-NI, 7-nitroindazole] | decreased | dramatic reduction | significantly smaller | significantly smaller | significantly reduced | unchanged | slightly decreased | slightly decreased | significant decrease |  |  |
| CC(=N)NCCCC[C@H](N)C(=O)O [L-NIL, N^6-(1-iminoethyl)-L-lysine] |  |  |  |  |  |  |  |  |  | significantly reduced | slightly decreased |
